Experimental findings from the NIST ThermoML archive (doi:10.1016/j.fluid.2012.02.005) are described below.

± gives the expanded uncertainty stated by the source.

For this data set the following is noted: Liquid; Ebulliometric method (Recirculating still).
`Cc1ccccc1` [toluene]: the Normal boiling temperature worked out at 110.54 ± 0.2 °C.

Consider `Cc1ccsc1` [3-methylthiophene], for which the Normal boiling temperature was found to be 115.20 ± 0.2 °C.

On to `CCCCCCC` [heptane], for which the Normal boiling temperature stood at 98.49 ± 0.2 °C.

For the molecule `CCC(C)C` [2-methylbutane], the Normal boiling temperature is 28.00 ± 0.21 °C.

For `CC(C)=C(C)C` [2,3-dimethyl-2-butene], the Normal boiling temperature was determined as 73.00 ± 0.2 °C.
